Source: patent US10611740B2, “Aryl dihydro-2H-benzo[b][1,4]oxazine sulfonamide and related compounds for use as agonists of RORγ and the treatment of disease” (Lycera Corporation, priority 2015, dated 2020)

What was measured:
RORγ-LBD = target: T1, RORγ-LBD (Homo sapiens, UniProt P51449); experiment: RORγ-Ligand Binding Domain (LBD) TR-FRET Assay; format: biochemical;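 for TR-FRET Assay Max Response: 665/615 nm ratio relative to signal without ursolic acid or compound set at 100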
T1 construct: made in house; host or cells: SF9 cells (baculovirus)
T1 sequence (P51449 269-508 limits assumed): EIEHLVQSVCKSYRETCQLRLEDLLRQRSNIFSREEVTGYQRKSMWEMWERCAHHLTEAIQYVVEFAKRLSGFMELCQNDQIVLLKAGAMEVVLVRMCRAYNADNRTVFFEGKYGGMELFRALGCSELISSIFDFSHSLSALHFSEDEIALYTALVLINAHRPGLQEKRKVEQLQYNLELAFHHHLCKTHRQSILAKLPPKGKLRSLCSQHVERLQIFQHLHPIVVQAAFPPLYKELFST
Outline: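 His-tagged RORγ-LBD from SF9 baculovirus lysate, ~3 nM final, in 50 mM Tris pH 7.0, 50 mM KCl, 1 mM EDTA, 0.1 mM DTT, 0.01% BSA. Biotinylated SRC1 LXXLL peptide at 200 nM final with 2 μM ursolic acid; TR-FRET read-out, 1% DMSO final.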

Gal4-RORγ-LBD = target: T2, Gal4-RORγ-LBD (Homo sapiens, UniProt P51449); experiment: Gal4-RORγ Luciferase Reporter Assay in HEK-293T Cells; format: cell-based; details: HEK-293 cells
T2 construct: expressed in transfected cells; host or cells: HEK-293 cells (pcDNA3.1neo plasmid)
T2 sequence (P51449 269-508 limits assumed): T1 sequence (P51449 269-508 limits assumed)
Outline: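 HEK-293 cells were transiently co-transfected with Gal4-RORγ-LBD and pGL4.31 Gal4-luciferase, with ursolic acid added at 2 μM final. Compounds were incubated overnight at 37° C. in 0.2% DMSO and luminescence read with One-Glo. Max Response is the upper plateau of a 4-parameter logistic fit, with signal lacking ursolic acid or compound set to 100.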

[1] = luciferase reporter, with 2 μM ursolic acid

SMILES	EC50 (RORγ-LBD) [nM]	TR-FRET Assay Max Response (RORγ-LBD)	EC50 (Gal4-RORγ-LBD; 2 μM ursolic acid) [nM]	Gal4-RORγ Assay Max Response (Gal4-RORγ-LBD; 2 μM ursolic acid)	EC50 (Gal4-RORγ-LBD; [1]) [nM]	Gal4-RORγ Assay Max Response (Gal4-RORγ-LBD; [1])
O=C(O)C1(C[C@H]2CN(S(=O)(=O)c3cccc(C(F)(F)F)c3)c3cc(-c4cc(F)ccc4F)ccc3O2)CCC1 [Compound 32BE, (S)-1-((6-(2,5-difluorophenyl)-4-((3-(trifluoromethyl)phenyl)-sulfonyl)-3,4-dihydro-2H-benzo[b][1,4]oxazin-2-yl)methyl)cyclobutane-1-carboxylic acid]	< 500	** (The symbol “**” indicates a value in the range of greater than 90 to 150)	< 500	** (The symbol “**” indicates a value in the range of greater than 90 to 150)		
O=C(O)C1(C[C@H]2CN(S(=O)(=O)c3cccc(C(F)(F)F)c3)c3cc(-c4cccc(Cl)c4F)ccc3O2)CCC1 [Compound 32BF, (S)-1-((6-(3-chloro-2-fluoro-phenyl)-4-((3-(trifluoromethyl)-phenyl)sulfonyl)-3,4-dihydro-2H-benzo[b][1,4]oxazin-2-yl)-methyl)cyclobutane-1-carboxylic acid]	< 500	*** (The symbol “***” indicates a value in the range of greater than 150 to 200)	< 500	** (The symbol “**” indicates a value in the range of greater than 90 to 150)		
CC(C)(C[C@H]1CN(S(=O)(=O)c2cccc(C(F)(F)F)c2)c2cc(-c3cc(F)cc(OC(F)F)c3F)ccc2O1)C(=O)O [Compound 32BG, (S)-3-(6-(3-(difluoromethoxy)-2,5-difluorophenyl)-4-((3-(trifluoromethyl)phenyl)sulfonyl)-3,4-dihydro-2H-benzo[b][1,4]-oxazin-2-yl)-2,2-dimethyl-propanoic acid]	< 500	** (The symbol “**” indicates a value in the range of greater than 90 to 150)	< 500	** (The symbol “**” indicates a value in the range of greater than 90 to 150)		
O=C(O)C1(C[C@H]2CN(S(=O)(=O)c3cccc(C(F)(F)F)c3)c3cc(-c4cc(F)cc(OC(F)F)c4)ccc3O2)CCC1 [Compound 32BH, (S)-1-((6-(3-(difluoromethoxy)-5-fluorophenyl)-4-((3-(trifluoro-methyl)phenyl)sulfonyl)-3,4-dihydro-2H-benzo[b][1,4]oxazin-2-yl)methyl)cyclobutane-l-carboxylic acid]	< 500	*** (The symbol “***” indicates a value in the range of greater than 150 to 200)	500 to 5000	** (The symbol “**” indicates a value in the range of greater than 90 to 150)		
CC(C)(C[C@H]1CN(S(=O)(=O)c2cccc(C(F)(F)F)c2)c2cc(-c3cc(OC(F)F)ccc3F)ccc2O1)C(=O)O [Compound 32BI, (S)-3-(6-(5-(difluoromethoxy)-2-fluorophenyl)-4-((3-(trifluoromethyl)phenyl)sulfonyl)-3,4-dihydro-2H-benzo[b][1,4]oxazin-2-yl)-2,2-dimethylpropanoic acid]	< 500	*** (The symbol “***” indicates a value in the range of greater than 150 to 200)	< 500	** (The symbol “**” indicates a value in the range of greater than 90 to 150)		
CC(C)(C[C@H]1CN(S(=O)(=O)c2cccc(C(F)(F)F)c2)c2cc(-c3cccc(OC(F)F)c3F)ccc2O1)C(=O)O [Compound 32BJ, (S)-3-(6-(3-(difluoromethoxy)-2-fluorophenyl)-4-((3-(trifluoromethyl)phenyl)sulfonyl)-3,4-dihydro-2H-benzo[b][1,4]oxazin-2-yl)-2,2-dimethylpropanoic acid]	< 500	*** (The symbol “***” indicates a value in the range of greater than 150 to 200)	< 500	** (The symbol “**” indicates a value in the range of greater than 90 to 150)		
COc1ccc(F)c(-c2ccc3c(c2)N(S(=O)(=O)c2cccc(C(F)(F)F)c2)C[C@H](CC(C)(C)C(=O)O)O3)c1F [Compound 32BK, (S)-3-(6-(2,6-difluoro-3-methoxyphenyl)-4-((3-(trifluoromethyl)phenyl)sulfonyl)-3,4-dihydro-2H-benzo[b][1,4]oxazin-2-yl)-2,2-dimethylpropanoic acid]	< 500	*** (The symbol “***” indicates a value in the range of greater than 150 to 200)	< 500	** (The symbol “**” indicates a value in the range of greater than 90 to 150)		
O=C(O)C1(C[C@H]2CN(S(=O)(=O)c3cccc(C(F)(F)F)c3)c3cc(-c4cccc(C(F)(F)F)n4)ccc3O2)CCC1 [Compound 32BL, (S)-l-((4-((3-(trifluoromethyl)-phenyl)sulfonyl)-6-(6-(trifluoro-methyl)pyridin-2-yl)-3,4-dihydro-2H-benzo[b][1,4]oxazin-2-yl)methyl)cyclobutane-1-carboxylic acid]	< 500	** (The symbol “**” indicates a value in the range of greater than 90 to 150)	< 500	* (The symbol “*” indicates a value in the range of 25 to 90)		
CC(C)(C[C@H]1CN(S(=O)(=O)c2cccc(C(F)(F)F)c2)c2cc(-c3c(F)ccc(F)c3F)ccc2O1)C(=O)O [Compound 32BM, (S)-2,2-dimethyl-3-(4-((3-(trifluoromethyl)phenyl)sulfonyl)-6-(2,3,6-trifluorophenyl)-3,4-dihydro-2H-benzo[b][1,4]oxazin-2-yl)propanoic acid]	< 500	*** (The symbol “***” indicates a value in the range of greater than 150 to 200)	< 500	** (The symbol “**” indicates a value in the range of greater than 90 to 150)		
COc1cc(F)cc(-c2ccc3c(c2)N(S(=O)(=O)c2cccc(C(F)(F)F)c2)C[C@H](CC(C)(C)C(=O)O)O3)c1F [Compound 32C, (S)-3-(6-(2,5-difluoro-3-methoxyphenyl)-4-((3-(trifluoromethyl)phenyl)sulfonyl)-3,4-dihydro-2H-benzo[b][1,4]oxazin-2-yl)-2,2-dimethylpropanoic acid]	< 500	**** (The symbol “****” indicates a value greater than 200)			< 500	** (The symbol “**” indicates a value in the range of greater than 90 to 150)
CN(C)c1cccc(-c2ccc3c(c2)N(S(=O)(=O)c2cccc(C(F)(F)F)c2)C[C@H](CC(C)(C)C(=O)O)O3)n1 [Compound 32D, (S)-3-(6-(6-(dimethylamino)-pyridin-2-yl)-4-((3-(trifluoromethyl)phenyl)sulfonyl)-3,4-dihydro-2H-benzo[b][1,4]oxazin-2-yl)-2,2-dimethylpropanoic acid]	< 500	**** (The symbol “****” indicates a value greater than 200)			< 500	** (The symbol “**” indicates a value in the range of greater than 90 to 150)
CC(C)(C[C@H]1CN(S(=O)(=O)c2cccc(C(F)(F)F)c2)c2cc(-c3cccc(C(F)(F)F)n3)ccc2O1)C(=O)O [Compound 32E, (S)-2,2-dimethyl-3-(4-((3-(trifluoromethyl)phenyl)sulfonyl)-6-(6-(trifluoromethyl)pyridin-2-yl)-3,4-dihydro-2H-benzo[b][1,4]oxazin-2-yl)propanoic acid]	< 500	**** (The symbol “****” indicates a value greater than 200)			< 500	** (The symbol “**” indicates a value in the range of greater than 90 to 150)
CC(C)(C[C@H]1CN(S(=O)(=O)c2cccc(C(F)(F)F)c2)c2cc(-c3cccc(OC(F)(F)F)c3)ccc2O1)C(=O)O [Compound 32F, (S)-2,2-dimethyl-3-(6-(3-(trifluoromethoxy)phenyl)-4-((3-(trifluoromethyl)phenyl)sulfonyl)-3,4-dihydro-2H-benzo[b][1,4]oxazin-2-yl)propanoic acid]	< 500	**** (The symbol “****” indicates a value greater than 200)			< 500	** (The symbol “**” indicates a value in the range of greater than 90 to 150)
CC(C)(C[C@H]1CN(S(=O)(=O)c2cccc(C(F)(F)F)c2)c2cc(-c3cccc(OC(F)F)c3)ccc2O1)C(=O)O [Compound 32G, (S)-3-(6-(3-(difluoromethoxy)-phenyl)-4-((3-(trifluoromethyl)-phenyl)sulfonyl)-3,4-dihydro-2H-benzo[b][1,4]oxazin-2-yl)-2,2-dimethylpropanoic acid]	< 500	*** (The symbol “***” indicates a value in the range of greater than 150 to 200)			< 500	** (The symbol “**” indicates a value in the range of greater than 90 to 150)
